Where only a bound is given, the exact number is not on record here.

In general, IC50 refers to the concentration needed to halve the response being measured.

The subject of this test is YAP-TEAD. The experiment in a line: TEAD inhibition, Hippo Pathway TEAD Reporter MCF-7 luciferase assay. In kind it is cell-based. The note with it: Homo sapiens, MCF7, 24 h, Hippo Pathway TEAD Reporter MCF-7 cells, luciferase activity after 24 h; read-out: IC50 of the test compounds on YAP-TEAD inhibition (Group). The procedure, abridged: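 IC50 derived from ONE-Glo luciferase luminescence after 24 h compound exposure (11 concentrations in quadruplicate, 0.1% DMSO control). Reporter: MCF-7 line expressing firefly luciferase under TEAD elements, constitutively activated by nuclear YAP1.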

For `COc1ccc(Oc2cccc(C(F)(F)F)c2)cc1NC(=O)C1CCC(=O)N1C(C)=O` (centres unmarked) [Compound 29, 1-Acetyl-N-(2-methoxy-5-(3-(trifluoromethyl)phenoxy)phenyl)-5-oxo-pyrrolidine-2-carboxamide], the IC50 fell in the range of 50 to 300 nM.

As for `COc1ccc(Oc2cccc(C(F)(F)F)c2)cc1NC(=O)C1CCS(=O)(=O)C1` (centres unmarked) [Compound 12, N-(2-Methoxy-5-(3-(trifluoromethyl)phenoxy)phenyl)tetrahydrothiophene-3-carboxamide 1,1-dioxide], the IC50 lay within 301 to 2000 nM.

With `COc1ccc(Oc2ccc(C(F)(F)F)cc2)cc1NC(=O)C1CC(=O)N(C)C1` (centres unmarked) [Compound 349, N-(2-Methoxy-5-(4-(trifluoromethyl)phenoxy)phenyl)-1-methyl-5-oxo-pyrrolidine-3-carboxamide], the IC50 was under 50 nM.

Turning to `COc1ccc(Oc2ccc(F)cc2F)cc1NC(=O)C1CCC(=O)N1` (centres unmarked) [Compound 42, N-(5-(2,4-Difluorophenoxy)-2-methoxyphenyl)-5-oxopyrrolidine-2-carboxamide], the IC50 was in the range of 50 to 300 nM.

In the case of `COc1c(F)cc(COc2cccc(F)c2)cc1NC(=O)C1CCC(=O)N1` (centres unmarked) [Compound 36, N-(3-Fluoro-5-((3-fluorophenoxy)methyl)-2-methoxyphenyl)-5-oxopyrrolidine-2-carboxamide], the IC50 is 50 to 300 nM.

For the molecule `CN1C(=O)CCC1C(=O)Nc1cc(COC2CCC(F)(F)CC2)cc2c1OCCO2` (centres unmarked) [Compound 113, N-(7-(((4,4-Difluorocyclohexyl)oxy)methyl)-2,3-dihydrobenzo[b][1,4]dioxin-5-yl)-1-methyl-5-oxopyrrolidine-2-carboxamide], the IC50 lay within 301 to 2000 nM.

Turning to `COc1ccc(/C=C/c2cccc(F)c2)cc1NC(=O)C1CCC(=O)N1C` (centres unmarked) [Compound 254, (E)-N-(5-(3-Fluorostyryl)-2-methoxyphenyl)-1-methyl-5-oxopyrrolidine-2-carboxamide], the IC50 fell in the range of 50 to 300 nM.

For the molecule `COc1ccc(Oc2ccc(C(F)F)cn2)cc1NC(=O)C1CNC(=O)N1C` (centres unmarked) [Compound 212, N-(5-((5-(Difluoromethyl)pyridin-2-yl)oxy)-2-methoxyphenyl)-3-methyl-2-oxoimidazolidine-4-carboxamide], the IC50 is 50 to 300 nM.

With `CN1C(=O)NC[C@H]1C(=O)Nc1cc(Oc2ccc(C(F)(F)F)cn2)ccc1O` [Compound 373, (S)—N-(2-Hydroxy-5-((5-(trifluoromethyl)pyridin-2-yl)oxy)phenyl)-3-methyl-2-oxoimidazolidine-4-carboxamide], the IC50 was in the range of 301 to 2000 nM.

With `COc1ccc(Oc2ccc(Cl)cc2)cc1NC(=O)[C@@H]1CCC(=O)N1C` [Compound 307, (S)—N-(5-(4-Chlorophenoxy)-2-methoxyphenyl)-1-methyl-5-oxopyrrolidine-2-carboxamide], the IC50 is under 50 nM.

With `COc1ccc(Oc2ccc(C(F)(F)F)cc2)cc1NC(=O)C1CCC(=O)N1C(C)C` (centres unmarked) [Compound 81, 1-Isopropyl-N-(2-methoxy-5-(4-(trifluoromethyl)phenoxy)phenyl)-5-oxo-pyrrolidine-2-carboxamide], the IC50 is under 50 nM.

`COc1cc(NC(=O)C2CCC(=O)N2C)cc(Oc2ccc(F)c(F)c2)c1` (centres unmarked) [Compound 284, N-(3-(3,4-Difluorophenoxy)-5-methoxyphenyl)-1-methyl-5-oxopyrrolidine-2-carboxamide]: the IC50 was in the range of 50 to 300 nM.

Turning to `COc1cc(F)c(Oc2ccc(C(F)(F)F)cn2)cc1NC(=O)[C@H]1COC(=O)N1C` [Compound 154, (R)—N-(4-Fluoro-2-methoxy-5-((5-(trifluoromethyl)pyridin-2-yl)-oxy)phenyl)-3-methyl-2-oxooxazolidine-4-carboxamide], the IC50 was under 50 nM.

As for `CN1C(=O)NC[C@@H]1C(=O)Nc1cc(Oc2ccc(C(F)(F)F)cn2)cc2c1OCC2` [Compound 169, (R)-3-Methyl-2-oxo-N-(5-((5-(trifluoromethyl)pyridin-2-yl)oxy)-2,3-dihydro-benzofuran-7-yl)imidazolidine-4-carboxamide], the IC50 lay within 50 to 300 nM.

Values taken from patent publication US20240246908A1 (ORION CORPORATION, priority 2021, published 2024).
